Source: patent US6281250A, “Retinyl ethers, derivatives and analogues and inhibition of breast carcinogenesis” (Southern Research Institute, priority 1999, dated 2001)
Entries after “also recorded” stand apart in the source; their conditions may differ. Read-outs that look alike come from different tables or passages of the source.

How the values were obtained:
[1] = molecular target: T1, cellular retinol-binding protein (CRBP) (Rattus norvegicus, UniProt P02696); assay: Binding to cellular retinol-binding protein (CRBP): inhibition of [3H]retinol binding, sucrose density-gradient sedimentation
T1 construct: portions of rat testes cytosol (1 mg protein) were incubated; from tissue; host or cells: rat testes cytosol
T1 sequence (P02696 1-135): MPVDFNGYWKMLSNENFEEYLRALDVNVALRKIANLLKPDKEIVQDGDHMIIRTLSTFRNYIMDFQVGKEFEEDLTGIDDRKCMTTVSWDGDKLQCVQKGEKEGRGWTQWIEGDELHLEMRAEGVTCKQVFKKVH
Procedure: Binding affinities of the retinyl ethers for CRBP were determined by sucrose, density-gradient, sedimentation analysis as described before (Sani et al., 1980). Briefly, portions of rat testes cytosol (1 mg protein) were incubated with [^3 H]retinol (50 pmol) in the presence or absence of a 150-fold molar excess of unlabeled retinol or the test retinoids. The preparations after dialysis were analyzed by 5-20% sucrose density gradient sedimentation. For measuring the competitive binding of the unlabeled retinoids, inhibition of [^3 H]retinol binding to CRBP by unlabeled retinol is regarded as 100%. The mean and standard deviation calculated from the relative inhibitions obtained from multiple determinations were used as the relative binding affinities of the various retinyl ethers.
The group of retinyl benzyl ethers has now been evaluated for binding to CRBP. Binding to CRBP, as defined for Table I, at approximately 60% or higher was rated as strong; at 40-60%, as moderate; at 20-40%, as low.
^a Per cent inhibition of binding of tritiated retinol to CRBP by a
150-fold molar excess of the unlabelled test retinoid (Sani et al., 1980,

[2] = system: NADPH-requiring enzymes in rat liver microsomes; assay: Conversion of retinyl ethers to retinol by rat liver microsomal enzymes; type: in vitro ADME; details: in vitro
Procedure: Because it was postulated, as stated above, that new retinyl ethers might not be converted by mircrosomal oxidases to retinol, RTMBE and 3a-i were tested in vitro in the same way.

[3] = system: MNU-induced mammary cancer; assay: 180-day study of RTMBE for suppression of MNU-induced mammary carcinogenesis (Expt. 3); type: in vivo, rat (female Sprague-Dawley)
Procedure: (§1) Retinoid diet mixtures were stored at 4° C. […] The animals were palpated for mammary tumors 2×/week. […] Also, five rats/group had complete necropsies performed.
(§2) The 2,5-dimethoxybenzyl (3b) and 4-methoxybenzyl (3e) ethers were tested in the same way in a 90-day study. […] The 2,5-dimethybenzyl (3c) and the 2,3-dimethoxybenzyl (3h) ethers, together with RTMBE for comparison, were likewise assayed according to the same methodology. Prior to the beginning of this study, specimens of the retinoid-diet mixtures were placed under the conditions that were employed during the storage and feeding of RTMBE, 3c, and 3h. The specimens were extracted with butanol, and the extracts were analyzed by HPLC. […] Testing of 3c and 3h was discontinued, but the RTMBE study was continued until the duration of the study was 180 days (Table 6). The results were similar to those of Experiment 1 (Table 3). The averages of the number of tumors per rat were reduced by 32-35%; in addition, the averages of the tumor weights per rat was 56-70% lower than the average tumor burden of the control group.
^a Each group of female Sprague-Dawley rats (10/group) received one
until Day 180 after injection of MNU.
and was continued until the study was terminated at 180 days after MNU.

[4] = Analysis of feed samples for stability of retinyl ethers; type: physicochemical
Procedure: as §2
^a The values in each column are % recoveries of the retinyl ether from
mixtures of the ether with feed samples and are based on the actual
amounts of the ether that were added.
^b The samples that were analyzed were mixtures of vehicle, retinoid,
and feed (prepared as described by Shealy et al., 1997).
^c Food cups were placed in animal cages within the room that housed
the rats; therefore, temperature (22° C.) and lighting were
identical to those in use during the in vivo tests.

[5] = Stability of retinyl ethers in storage and in solution; type: physicochemical
in vivo = assay: in vivo
Procedure: Toxicological evaluations involving measurement of body weights and observations of clinical signs characteristic of retinoid toxicity were accomplished as previously described (Lin et al., 1996).
RTMBE and two of its analogues, together with RME and RPE, were selected for estimation of their toxicities to mice when administered during 28-29 days by gavage in corn oil (Table 8). Mice were evaluated for changes in body weight and for signs of clinical retinoid toxicity (hypervitaminosis A) including alopecia, scaly skin, and limping. In the first experiment, these retinyl ethers were given at equimicromolar doses at three dose levels. The retinyl benzyl ethers (RTMBE, 3c, and 3e) were then tested at higher doses in a second experiment.

[6] = Toxicity observations in rats receiving retinoids in feed; type: in vivo, rat (Sprague-Dawley); details: administered in feed, listed as RTMBE
Procedure: as §1

[7] = Mammary tissue-to-plasma concentration after intravenous dosing; type: in vivo, rat (female Sprague-Dawley); details: rat, 5 mg/kg i.v., after 24 hr, read-out: ratio of mammary tissue-to-plasma concentrations
[8] = system: MNU-induced mammary cancer; details: for Adenocarcinomas, % of Control Group A / Adenocarcinomas, Avg. No. Per Rat / reduction of average number of tumors per rat: 160 days
Procedure: Briefly, diets were prepared by mixing each retinoid with Wayne meal or Teklad (4%) mash diet. For each kg of diet, the retinoid was dissolved in 12 g ethanol, 19 g trioctanoin, 0.05 mL Tenox 20, and 0.05 mL d,1-alpha tocopherol prior to incorporation into the feed using a Patterson-Kelly blender. Retinoid diet mixtures were stored at 4° C. Portions of each retinoid-diet mixture were analyzed for the added retinoid to ensure homogeneity. Female Sprague-Dawley rats received an i.v. injection of MNU (45 mg/kg body weight) at 50 days of age. Diet supplementation with retinoids was initiated three days after MNU. A group of rats receiving retinyl acetate (1 mmol/kg of diet) served as the positive control. The animals were palpated for mammary tumors 2×/week. At termination of the study, mammary tumors were processed for histological classification. Also, five rats/group had complete necropsies performed. The tissues were examined histologically for pathological lesions as additional toxicological evaluation. Extracts of the liver and mammary gland (5 rats/group) were analyzed by HPLC for retinyl palmitate and/or for the dosed retinoid. Statistical analyses of cancer incidence and latency were determined using logrank analysis, while differences in cancer multiplicity were determined employing the Armitage test.
In this assay, described previously (Grubbs et al., 1995; Shealy el al., 1997), a retinoid dissolved in a solution (vehicle) consisting of ethanol and trioctanoin plus small amounts of Tenox 20 and α-tocopherol was mixed with feed, and the mixture was fed to rats after intravenous injection of MNU.
^a Female Sprague-Dawley rats (10/group) received one i.v. injection of
MNU (45 mg/kg of body weight) at 50 days of age. Diet supplementation with
retinoids was initiated at 52 days of age and was continued until the
study was terminated 160 days after administration of MNU.
^b Treatment with retinoids is stated in millimoles of retinoid per
kilogram of diet (Wayne meal).

[9] = Shealy et al., 1997; cited from earlier work
[10] = 7 days, 25.5±1.5° C., protected

For `COc1cc(COC/C=C(C)/C=C/C=C(C)/C=C/C2=C(C)CCCC2(C)C)cc(OC)c1OC` [Compound 2, Retinyl 3,4,5-Trimethoxybenzyl Ether], the “Binding to CRBP, rating” value ([1]; 150-fold molar excess) was “strong or moderate binding”, the “binding to CRBP, in words” value ([1]; 150-fold molar excess) was “bind to CRBP” and the “Percent Inhibition of [3H] Retinol Binding (CRBP Assay)” value ([1]; 150-fold molar excess of unlabelled test retinoid, rat testes cytosol) was 66 ± 12%. The conversion to retinol [2] was “not detectable”, the “Adenocarcinomas, % of Control Gp.” value ([3]; 0.5 mmol/kg diet, 180 days) was 65% and the “Adenocarcinomas, Avg. No. Per Rat” value ([3]; 0.5 mmol/kg diet, 180 days) was 4.07. For the same compound, the “Final Body Wt.” value ([3]; 0.5 mmol/kg diet, 180 days) was 259 g, the “Tumor Wt. Per Rat” value ([3]; 0.5 mmol/kg diet, 180 days) was 7.0 g and the “Adenocarcinomas, % of Control Gp.” value ([3]; 1 mmol/kg diet, 180 days) was 67%. For the same compound, the “Adenocarcinomas, Avg. No. Per Rat” value ([3]; 1 mmol/kg diet, 180 days) was 4.20, the “Final Body Wt.” value ([3]; 1 mmol/kg diet, 180 days) was 252 g and the “Tumor Wt. Per Rat” value ([3]; 1 mmol/kg diet, 180 days) was 7.57 g. For the same compound, the “Adenocarcinomas, % of Control Gp.” value ([3]; 2 mmol/kg diet, 180 days) was 68%, the “Adenocarcinomas, Avg. No. Per Rat” value ([3]; 2 mmol/kg diet, 180 days) was 4.27 and the “Final Body Wt.” value ([3]; 2 mmol/kg diet, 180 days) was 246 g. The “Tumor Wt. Per Rat” value ([3]; 2 mmol/kg diet, 180 days) was 5.14 g, the “average tumor weight per rat lower than control group” value ([3]; 180 days, 0.5-2 mmol/kg diet) was 56-70% and the “reduction of average number of tumors per rat” value (from here on “reduction … per rat”) ([3]; 180 days, 0.5-2 mmol/kg diet) was 32-35%. For the same compound, the “suppression of MNU-induced mammary cancer” value ([3]; three long-term experiments of 160-180 days) was “suppressed MNU-induced mammary cancer”, the “% recovery of retinyl ether from feed” value ([4]; After 1 week of 4° C., 10080 min) was 101% and the “% recovery of retinyl ether from feed” value ([4]; After 1 day in food cup (22° C.)) was 97%. The “% recovery of retinyl ether from feed” value ([4]; After 2 days in food cup (22° C.)) was 104%, the “% recovery of retinyl ether from feed” value ([4]; After 3 days in food cup (22° C.)) was 97.5% and the “% recovery of retinyl ether from feed” value ([4]; Immediately After Mixing) was 99.8%. For the same compound, the “% recovery of retinyl ether” value ([4]; Vehicle + Retinoid (only)) was 97%, the “stability in diet mixtures” value ([4]; conditions of storage and feeding in animal rooms) was “essentially unchanged” and the stability on storage ([5]; 5 years at -20° C., inert atmosphere) was “unchanged”. The “stability in DMSO” value [5, 10] was “changed very little”, the “stability in absolute ethanol” value [5, 10] was “practically unchanged” and the remaining at 43830 h ([5]; inert atmosphere storage, 5 years at -20° C., inert atmosphere, read-out: HPLC on re-analysis after storage) was 99.2%. The NOAEL (in vivo; mouse, in vivo, po) was 249 mg/kg/day, the “Toxic Dose” value (in vivo; oral gavage in corn oil, 28-29 days) was > 249 mg/kg day and the “clinical toxicity (alopecia, scaly skin, limping)” value (in vivo; oral gavage, up to highest dose (RTMBE and RMoBE-4: Expt. 2)) was “No evidence of clinical toxicity”. The “toxicity in MNU-mammary cancer studies” value [6] was “Overt toxicity was not evident; also recorded: not toxic in the mammary carcinogenesis studies”, the Kp at 24 h [7] was 183 ± 77 and the “Adenocarcinomas, % of Control Group A” value ([8]; 0.5 mmol/kg diet) was 100%. The “Adenocarcinomas, Avg. No. Per Rat” value ([8]; 0.5 mmol/kg diet) was 6.5, the “Adenocarcinomas, % of Control Group A” value ([8]; 1 mmol/kg diet) was 55% and the “Adenocarcinomas, Avg. No. Per Rat” value ([8]; 1 mmol/kg diet) was 3.6. For the same compound, the “reduction … per rat” value ([8]; 1 mmol/kg feed) was 46%, the “Adenocarcinomas, % of Control Group A” value ([8]; 2 mmol/kg diet) was 54% and the “Adenocarcinomas, Avg. No. Per Rat” value ([8]; 2 mmol/kg diet) was 3.5. For the same compound, the “reduction … per rat” value ([8]; 2 mmol/kg feed) was 45%, the “prevention / suppression of mammary cancer, general statement” value ([8]; animal model / in vivo initial study) was “suppress mammary cancer in vivo” and the “recovery from the feed of rats” value [9] was “recoverable from the feed of rats”.
